These results are taken from PubChem BioAssay (NCI).

Test systems include 786-0 renal; DU-145 prostate; LOX IMVI melanoma; MALME-3M melanoma; NCI-H23 lung; NCI-H522 lung; OVCAR-4 ovarian; SK-MEL-28 melanoma; SK-MEL-5 melanoma; UACC-62 melanoma.
Common to all, as to test: growth of human tumour cells (NCI), 48 h

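Method: 48-hour compound exposure of cells in 96-well plates, five concentrations, linear interpolation of endpoints. Abbreviation: GI50, concentration required for 50% inhibition of growth. TGI denotes the concentration required for complete inhibition of growth.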

For `Cn1c(-c2nonc2N)nc2cnccc21`, the GI50 with 786-0 renal, in the experiment on DU-145 prostate, in the experiment on LOX IMVI melanoma, with MALME-3M melanoma, with NCI-H23 lung and with NCI-H522 lung was > 25 µM throughout. Also, the GI50 in the experiment on OVCAR-4 ovarian, with SK-MEL-28 melanoma, in the experiment on SK-MEL-5 melanoma and in the experiment on UACC-62 melanoma was > 25 µM throughout. Further, the TGI with 786-0 renal, in the experiment on DU-145 prostate, in the experiment on LOX IMVI melanoma, in the experiment with MALME-3M melanoma, with NCI-H23 lung and in the experiment with NCI-H522 lung was > 25 µM each time. The TGI in the experiment on OVCAR-4 ovarian, in the experiment on SK-MEL-28 melanoma, in the experiment on SK-MEL-5 melanoma and in the experiment with UACC-62 melanoma was > 25 µM each time.

Take `Cn1cc(C2=C(c3ccc(OC[C@@H](O)CO)cc3)C(=O)NC2=O)c2ccccc21`: the GI50 in the experiment on 786-0 renal, in the experiment with DU-145 prostate, in the experiment with LOX IMVI melanoma, in the experiment on MALME-3M melanoma, in the experiment with NCI-H23 lung and in the experiment on NCI-H522 lung was > 25 µM throughout. Moreover, the GI50 with OVCAR-4 ovarian, with SK-MEL-28 melanoma, with SK-MEL-5 melanoma and in the experiment with UACC-62 melanoma was > 25 µM throughout. The TGI with 786-0 renal, in the experiment with DU-145 prostate, in the experiment on LOX IMVI melanoma, in the experiment with MALME-3M melanoma, in the experiment with NCI-H23 lung and in the experiment with NCI-H522 lung was > 25 µM throughout. Besides, the TGI with OVCAR-4 ovarian, in the experiment on SK-MEL-28 melanoma, with SK-MEL-5 melanoma and with UACC-62 melanoma was > 25 µM in each case.

Take `O=[N+]([O-])C(=C(Sc1ccccc1)Sc1ccccc1)C(Cl)=C(Cl)Cl`: the TGI came to 0.188 µM in the experiment on 786-0 renal; 3.43 µM in the experiment on DU-145 prostate; 1.09 µM with LOX IMVI melanoma; 1.37 µM in the experiment on MALME-3M melanoma; 2.91 µM in the experiment with NCI-H23 lung; 0.143 µM in the experiment with NCI-H522 lung. Also, the TGI was determined as 1.46 µM with OVCAR-4 ovarian, 1.09 µM in the experiment with SK-MEL-28 melanoma, 3.58 µM in the experiment with SK-MEL-5 melanoma and 1.94 µM in the experiment with UACC-62 melanoma.

On to `N#Cc1cnn2ccn(C3OC(COC(=O)c4ccccc4)C(OC(=O)c4ccccc4)C3OC(=O)c3ccccc3)c12` (stereo not given), for which the TGI was > 21.5 µM in the experiment on 786-0 renal; > 21.5 µM in the experiment on DU-145 prostate; > 31.6 µM in the experiment with LOX IMVI melanoma; > 21.5 µM in the experiment on MALME-3M melanoma; > 21.5 µM with NCI-H23 lung; > 21.5 µM in the experiment on NCI-H522 lung. Moreover, the TGI with OVCAR-4 ovarian, with SK-MEL-28 melanoma, in the experiment with SK-MEL-5 melanoma and in the experiment with UACC-62 melanoma was > 21.5 µM in each case.

`CC(=O)OCC1OC(n2c(=S)[nH]c(-c3ccccc3)c(C#N)c2=O)C(OC(C)=O)C(OC(C)=O)C1OC(C)=O` (stereo not given): the TGI with 786-0 renal, with DU-145 prostate, with LOX IMVI melanoma, in the experiment on MALME-3M melanoma, in the experiment on NCI-H23 lung and in the experiment on NCI-H522 lung was > 100 µM in each case. The TGI in the experiment with OVCAR-4 ovarian, in the experiment on SK-MEL-28 melanoma, with SK-MEL-5 melanoma and in the experiment with UACC-62 melanoma was > 100 µM throughout.

For `CCOC(=O)c1c(N)n(-c2ccccc2)c(=S)n(-c2ccccc2)c1=O`, the TGI with 786-0 renal, with DU-145 prostate, in the experiment on LOX IMVI melanoma, with MALME-3M melanoma, in the experiment with NCI-H23 lung and with NCI-H522 lung was > 100 µM in each case. For the same compound, the TGI in the experiment on OVCAR-4 ovarian, in the experiment with SK-MEL-28 melanoma, with SK-MEL-5 melanoma and with UACC-62 melanoma was > 100 µM throughout.

For `Cc1c(N2C(=O)/C(=C\c3ccccc3O)N=C2c2ccccc2)c(=O)n(-c2ccccc2)n1C`, the GI50 in the experiment on 786-0 renal was 29.9 µM; in the experiment on DU-145 prostate it was 87.4 µM; with LOX IMVI melanoma it was 62.3 µM; in the experiment on MALME-3M melanoma it was 49.1 µM; in the experiment with NCI-H23 lung it was > 100 µM; with NCI-H522 lung, 64 µM. Also, the GI50 was > 100 µM in the experiment on OVCAR-4 ovarian, > 100 µM in the experiment with SK-MEL-28 melanoma, 62.3 µM with SK-MEL-5 melanoma and 53.9 µM with UACC-62 melanoma. Besides, the TGI in the experiment on 786-0 renal, in the experiment on DU-145 prostate, with LOX IMVI melanoma, in the experiment on MALME-3M melanoma, in the experiment on NCI-H23 lung and with NCI-H522 lung was > 100 µM in each case. The TGI in the experiment on OVCAR-4 ovarian, with SK-MEL-28 melanoma, with SK-MEL-5 melanoma and in the experiment with UACC-62 melanoma was > 100 µM each time.

As to `N#Cc1nc(-c2ccc(F)cc2)oc1S(=O)(=O)N1CCOCC1`, the GI50 is 3.34 µM with 786-0 renal; 2.23 µM with DU-145 prostate; 1.02 µM in the experiment with LOX IMVI melanoma; 1.7 µM in the experiment with MALME-3M melanoma; 10.4 µM in the experiment on NCI-H23 lung; 0.675 µM in the experiment on NCI-H522 lung. Further, the GI50 with OVCAR-4 ovarian was 3.08 µM; in the experiment with SK-MEL-28 melanoma it was 2.41 µM; in the experiment on SK-MEL-5 melanoma, 6.33 µM; in the experiment with UACC-62 melanoma, 4.79 µM. For the same compound, the TGI came out at 11.7 µM in the experiment on 786-0 renal; 6.07 µM with DU-145 prostate; 2.3 µM with LOX IMVI melanoma; 4.23 µM with MALME-3M melanoma; 25.4 µM in the experiment on NCI-H23 lung; 3.13 µM in the experiment with NCI-H522 lung. Further, the TGI came to 10.2 µM in the experiment with OVCAR-4 ovarian, 6.25 µM in the experiment with SK-MEL-28 melanoma, 18.8 µM in the experiment on SK-MEL-5 melanoma and 17.6 µM in the experiment on UACC-62 melanoma.

With `COc1ccc(NC2Oc3cc4c(cc3C(c3cc(OC)c(OC)c(OC)c3)C2C)OCO4)cc1` (stereo not given), the TGI was > 81.1 µM in the experiment on 786-0 renal; > 91.4 µM with DU-145 prostate; > 100 µM in the experiment with LOX IMVI melanoma; > 100 µM in the experiment with MALME-3M melanoma; > 89.7 µM in the experiment on NCI-H23 lung; 2.45 µM in the experiment with NCI-H522 lung. Further, the TGI was > 100 µM in the experiment on OVCAR-4 ovarian, > 100 µM in the experiment on SK-MEL-28 melanoma, 4.09 µM in the experiment on SK-MEL-5 melanoma and > 100 µM in the experiment with UACC-62 melanoma.
